Results from ChEMBL document CHEMBL1138246, “Ester prodrugs of cyclic 1-(S)-[3-hydroxy-2-(phosphonomethoxy)propyl]-5-azacytosine: synthesis and antiviral activity” (J Med Chem, 2007).
In brackets after ≈: the same amount, converted by molar mass.

System: Vaccinia virus
Type: functional, organism-based
Details: Orthopoxvirus vaccinia, Lederle, HEL

| Compound | EC50 |
| --- | --- |
| CC(C)(C)C(=O)OCOP1(=O)CO[C@@H](Cn2cnc(N)nc2=O)CO1 (some centres not stated) | 0.79 µg/mL (≈ 2.1 µM) |
| Nc1ncn(C[C@@H](CO)OCP(=O)(O)O)c(=O)n1 | 2.16 µg/mL (≈ 7.71 µM) |
| Nc1ccn(C[C@@H](CO)OCP(=O)(O)O)c(=O)n1.O.O [CIDOFOVIR] | 3.09 µg/mL |
| CCCCCCCCCCCCCCCCOCCOP1(=O)CO[C@@H](Cn2cnc(N)nc2=O)CO1 (some centres not stated) | 0.037 µg/mL (≈ 0.0697 µM) |
| CCCCCCCCCCCCCCCCCCOP1(=O)CO[C@@H](Cn2cnc(N)nc2=O)CO1 (some centres not stated) | 4.45 µg/mL (≈ 8.65 µM) |
| Nc1ccn(C[C@H]2COP(=O)(O)CO2)c(=O)n1 [CYCLIC CIDOFOVIR] | 2.78 µg/mL (≈ 10.6 µM) |
| Nc1ncn(C[C@H]2COP(=O)(O)CO2)c(=O)n1 | 2.12 µg/mL (≈ 8.09 µM) |
